According to patent US8889667B2 (Agios Pharmaceuticals, Inc, priority 2010, dated 2014):

Target: PKM2 (Homo sapiens, UniProt P14618)
Assay: PKM2 Assay (activation, LDH-coupled, absorbance at 340 nm)
Type: biochemical
How it was run: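 Human PKM2 (50 ng/well) was preincubated with compound and coupling mix for 30 min at 4 °C without ADP. Reactions were then started with ADP (0.7 mM) alongside PEP 0.15 mM, NADH 180 μM and LDH, in Tris pH 7.5/KCl/MgCl2/DTT/BSA buffer. A340 was followed at 25 °C and activation reported as AC50.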

Chain of PKM2 (P14618 whole entry): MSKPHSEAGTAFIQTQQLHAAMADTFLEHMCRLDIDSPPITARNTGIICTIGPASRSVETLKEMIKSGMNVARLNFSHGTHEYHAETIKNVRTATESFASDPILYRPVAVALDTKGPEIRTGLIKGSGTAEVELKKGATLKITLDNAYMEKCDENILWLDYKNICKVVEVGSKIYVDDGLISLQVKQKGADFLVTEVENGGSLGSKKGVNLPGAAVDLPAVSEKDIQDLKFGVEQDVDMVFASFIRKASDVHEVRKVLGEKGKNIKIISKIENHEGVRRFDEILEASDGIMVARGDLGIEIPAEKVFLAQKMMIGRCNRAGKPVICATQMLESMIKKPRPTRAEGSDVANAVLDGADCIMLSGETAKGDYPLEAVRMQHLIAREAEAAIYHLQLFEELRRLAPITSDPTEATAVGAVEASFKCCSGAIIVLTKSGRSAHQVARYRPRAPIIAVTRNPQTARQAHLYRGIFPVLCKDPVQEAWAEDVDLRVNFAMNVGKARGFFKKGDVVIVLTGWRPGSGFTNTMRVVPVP

Row | Compound | AC50 (Table 4) | AC50 (Table 5)
1 | O=C(c1ccc(NS(=O)(=O)c2cccc3cccnc23)c(OC(F)(F)F)c1)N1CCN(CC2CC2)CC1 [Compound 301, N-(4-(4-(cyclopropylmethyl)piperazine-1-carbonyl)-2-(trifluoromethoxy)phenyl)quinoline-8-sulfonamide] |  | 100 to 500 nM
2 | C[C@H]1CN(C[C@H]2CCCO2)CCN1C(=O)c1ccc(NS(=O)(=O)c2cccc3cccnc23)cc1 (stereo in doubt) [Compound 211, N-(4-((2S)-2R-methyl-4-((tetrahydrofuran-2-yl)methyl)piperazine-1-carbonyl)phenyl)quinoline-8-sulfonamide] | < 100 nM | 
3 | COc1ccc(CN2CCN(C(=O)c3ccc(NS(=O)(=O)c4cccc5cccnc45)c(OC(F)(F)F)c3)CC2)cc1 [Compound 310, N-(4-(4-(4-methoxybenzyl)piperazine-1-carbonyl)-2-(trifluoromethoxy)phenyl)quinoline-8-sulfonamide] |  | 100 to 500 nM
4 | O=C(c1ccc(NS(=O)(=O)c2cccc3cccnc23)nc1)N1CCN(CC2CC2)CC1 [Compound 411, N-(5-(4-(cyclopropylmethyl)piperazine-1-carbonyl)pyridin-2-yl)quinoline-8-sulfonamide] |  | 1000 to 20000 nM
5 | C[C@H](c1ccccc1)N1CCN(C(=O)c2ccc(NS(=O)(=O)c3cccc4cccnc34)cc2)CC1 [Compound 388, (R)—N-(4-(4-(1-phenylethyl)piperazine-1-carbonyl)phenyl)quinoline-8-sulfonamide] |  | < 100 nM
6 | O=C(O[C@@H]1CCOC1)N1CCN(C(=O)c2ccc(NS(=O)(=O)c3cccc4cccnc34)c(OC(F)(F)F)c2)CC1 [Compound 311] |  | 1000 to 20000 nM
7 | O=C(c1cc(F)cc(F)c1)N1CCN(C(=O)c2ccc(NS(=O)(=O)c3cccc4cccnc34)c(OC(F)(F)F)c2)CC1 [Compound 326, N-(4-(4-(3,5-difluorobenzoyl)piperazine-1-carbonyl)-2-(trifluoromethoxy)phenyl)quinoline-8-sulfonamide] |  | 100 to 500 nM
8 | C[C@H]1CN(C(=O)c2ccccn2)CCN1C(=O)c1ccc(NS(=O)(=O)c2cccc3cccnc23)cc1 [Compound 101] | 100 to 500 nM | 
9 | CC1CN(Cc2ccc(F)cc2)CC(C)N1C(=O)c1ccc(NS(=O)(=O)c2cccc3cccnc23)cc1 (centres unmarked) [Compound 196, N-(4-(4-(4-fluorobenzyl)-2,6-dimethylpiperazine-1-carbonyl)phenyl)quinoline-8-sulfonamide] | < 100 nM | 
10 | Cc1cnc(C(=O)N2CCN(C(=O)c3ccc(NS(=O)(=O)c4cccc5cccnc45)c(OC(F)(F)F)c3)CC2)cn1 [Compound 325] |  | 1000 to 20000 nM
11 | O=C(c1ccc(NS(=O)(=O)c2cccc3cccnc23)cc1F)N1CCN(Cc2ccc(F)cc2)CC1 [Compound 420, N-(3-fluoro-4-(4-(4-fluorobenzyl)piperazine-1-carbonyl)phenyl)quinoline-8-sulfonamide] |  | < 100 nM
12 | O=C(c1ccc(NS(=O)(=O)c2cccc3cccnc23)c(C(F)(F)F)c1)N1CCN(Cc2ccncc2)CC1 [Compound 328, N-(4-(4-(pyridin-4-ylmethyl)piperazine-1-carbonyl)-2-(trifluoromethyl)phenyl)quinoline-8-sulfonamide] |  | 1000 to 20000 nM
13 | C[C@@H]1CN(CC2CCCO2)CCN1C(=O)c1ccc(NS(=O)(=O)c2cccc3cccnc23)cc1 (stereo partly drawn) [Compound 147, N-(4-((2R)-2-methyl-4-((tetrahydrofuran-2-yl)methyl)piperazine-1-carbonyl)phenyl)quinoline-8-sulfonamide] | < 100 nM | 
14 | O=C(c1ccc(NS(=O)(=O)c2cccc3cccnc23)c(OC(F)(F)F)c1)N1CCN(Cc2cn[nH]c2)CC1 [Compound 383] |  | 100 to 500 nM
15 | O=C(c1ccc(NS(=O)(=O)c2cccc3cccnc23)cc1)N1CCN(Cc2c[nH]cn2)CC1 [Compound 386, N-(4-(4-((1H-imidazol-4-yl)methyl)piperazine-1-carbonyl)phenyl)quinoline-8-sulfonamide] |  | 100 to 500 nM

The remaining lines, values ahead:

Row | AC50 (Table 4) | AC50 (Table 5) | Compound
16 | 100 to 500 nM |  | C[C@H]1CN(Cc2c(F)ccc(F)c2F)CCN1C(=O)c1ccc(NS(=O)(=O)c2cccc3cccnc23)cc1 [Compound 141, (S)—N-(4-(2-methyl-4-(2,3,6-trifluorobenzyl)piperazine-1-carbonyl)phenyl)quinoline-8-sulfonamide]
17 |  | < 100 nM | CC(c1ccc(F)c(Cl)c1)N1CCN(C(=O)c2ccc(NS(=O)(=O)c3cccc4cccnc34)cc2)CC1 (centres unmarked) [Compound 332, N-(4-(4-(1-(3-chloro-4-fluorophenyl)ethyl)piperazine-1-carbonyl)phenyl)quinoline-8-sulfonamide]
18 | 100 to 500 nM |  | CC(c1c(F)cccc1F)N1CCN(C(=O)c2ccc(NS(=O)(=O)c3cccc4cccnc34)cc2)[C@H](C)C1 (stereo partly drawn) [Compound 159, N-(4-((2R)-4-(1-(2,6-difluorophenyl)ethyl)-2-methylpiperazine-1-carbonyl)phenyl)quinoline-8-sulfonamide]
19 | < 100 nM |  | CC[C@H]1CN(C(C)c2cc(F)cc(F)c2)CCN1C(=O)c1ccc(NS(=O)(=O)c2cccc3cccnc23)cc1 (stereo partly drawn) [Compound 161, N-(4-((2S)-4-(1-(3,5-difluorophenyl)ethyl)-2-ethylpiperazine-1-carbonyl)phenyl)quinoline-8-sulfonamide]
20 | 100 to 500 nM |  | CC[C@H]1CN(C(C)c2cc(F)c(F)c(F)c2)CCN1C(=O)c1ccc(NS(=O)(=O)c2cccc3cccnc23)cc1 (stereo partly drawn) [Compound 162, N-(4-((2S)-2-ethyl-4-(1-(3,4,5-trifluorophenyl)ethyl)piperazine-1-carbonyl)phenyl)quinoline-8-sulfonamide]
21 |  | < 100 nM | CC(c1c(F)cc(F)cc1F)N1CCN(C(=O)c2ccc(NS(=O)(=O)c3cccc4cccnc34)cc2)CC1 (centres unmarked) [Compound 397, N-(4-(4-(1-(2,4,6-trifluorophenyl)ethyl)piperazine-1-carbonyl)phenyl)quinoline-8-sulfonamide]
22 | < 100 nM |  | C[C@@H]1CN(Cc2ccc(F)c(F)c2F)CCN1C(=O)c1ccc(NS(=O)(=O)c2cccc3cccnc23)cc1 [Compound 118, (R)—N-(4-(2-methyl-4-(2,3,4-trifluorobenzyl)piperazine-1-carbonyl)phenyl)quinoline-8-sulfonamide]
23 | 100 to 500 nM |  | CC(c1cc(F)c(F)c(F)c1)N1CCN(C(=O)c2ccc(NS(=O)(=O)c3cccc4cccnc34)cc2)[C@H](C)C1 (stereo partly drawn) [Compound 158, N-(4-((2R)-2-methyl-4-(1-(3,4,5-trifluorophenyl)ethyl)piperazine-1-carbonyl)phenyl)quinoline-8-sulfonamide]
24 | 100 to 500 nM |  | CC1CN(Cc2cc(F)c(F)c(F)c2)CC(C)N1C(=O)c1ccc(NS(=O)(=O)c2cccc3cccnc23)cc1 (centres unmarked) [Compound 201, N-(4-(2,6-dimethyl-4-(3,4,5-trifluorobenzyl)piperazine-1-carbonyl)phenyl)quinoline-8-sulfonamide]
25 | < 100 nM |  | CC(c1cc(F)cc(F)c1)N1CCN(C(=O)c2ccc(NS(=O)(=O)c3cccc4cccnc34)cc2)[C@H](C)C1 (stereo partly drawn) [Compound 135, N-(4-((2R)-4-(1-(3,5-difluorophenyl)ethyl)-2-methylpiperazine-1-carbonyl)phenyl)quinoline-8-sulfonamide]
26 | < 100 nM |  | C[C@@H]1CN(Cc2cc(F)c(F)c(F)c2)CCN1C(=O)c1ccc(NS(=O)(=O)c2cccc3cccnc23)cc1 [Compound 149, (R)—N-(4-(2-methyl-4-(3,4,5-trifluorobenzyl)piperazine-1-carbonyl)phenyl)quinoline-8-sulfonamide]
